Experimental findings from article PMC8237267 (Journal of Medicinal Chemistry, 2021) are described below.

In one data set the target is T1, HDAC6 (Homo sapiens, UniProt Q9UBN7).
T1 sequence (Q9UBN7 1-1215): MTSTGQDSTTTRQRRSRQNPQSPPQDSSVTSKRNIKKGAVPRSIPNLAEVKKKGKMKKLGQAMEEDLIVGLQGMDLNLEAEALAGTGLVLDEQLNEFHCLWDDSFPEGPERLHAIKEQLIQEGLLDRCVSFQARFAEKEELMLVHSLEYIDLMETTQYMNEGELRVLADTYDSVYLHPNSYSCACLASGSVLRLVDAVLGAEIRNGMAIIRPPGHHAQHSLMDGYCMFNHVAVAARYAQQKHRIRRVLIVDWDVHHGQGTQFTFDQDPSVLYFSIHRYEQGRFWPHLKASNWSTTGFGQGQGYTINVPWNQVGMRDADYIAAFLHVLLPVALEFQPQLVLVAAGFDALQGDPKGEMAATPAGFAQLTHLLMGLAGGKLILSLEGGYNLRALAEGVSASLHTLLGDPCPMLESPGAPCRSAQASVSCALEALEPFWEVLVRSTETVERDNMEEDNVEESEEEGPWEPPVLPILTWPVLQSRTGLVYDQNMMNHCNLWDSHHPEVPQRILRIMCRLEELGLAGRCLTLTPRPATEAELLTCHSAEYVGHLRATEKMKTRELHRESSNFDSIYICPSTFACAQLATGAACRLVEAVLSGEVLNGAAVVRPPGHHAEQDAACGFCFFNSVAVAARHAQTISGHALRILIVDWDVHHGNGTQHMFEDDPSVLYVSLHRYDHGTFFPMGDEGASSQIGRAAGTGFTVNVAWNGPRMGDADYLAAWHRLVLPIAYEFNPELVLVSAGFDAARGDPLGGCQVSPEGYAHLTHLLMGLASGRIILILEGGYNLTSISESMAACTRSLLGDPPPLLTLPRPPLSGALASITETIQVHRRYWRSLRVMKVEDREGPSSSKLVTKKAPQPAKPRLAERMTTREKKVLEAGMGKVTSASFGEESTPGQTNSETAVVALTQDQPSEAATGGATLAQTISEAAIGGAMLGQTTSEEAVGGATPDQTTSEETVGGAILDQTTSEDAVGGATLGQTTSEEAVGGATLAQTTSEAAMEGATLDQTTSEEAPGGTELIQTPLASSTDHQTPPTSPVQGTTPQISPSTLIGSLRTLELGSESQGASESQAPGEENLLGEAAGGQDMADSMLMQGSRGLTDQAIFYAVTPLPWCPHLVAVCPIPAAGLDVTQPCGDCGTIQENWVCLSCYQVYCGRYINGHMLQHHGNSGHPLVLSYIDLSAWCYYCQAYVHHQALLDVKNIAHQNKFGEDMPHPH
Description: HDAC EMSA activity assay (Nanosyn). The note with it: for IC50: EMSA (Nanosyn); for HDAC6 fold-selectivity: over the next closest HDAC isoform tested, * = selectivity ≥ indicated value. Set-up: The full-length human HDACs were recombinantly expressed and purified from SF9 insect cells; host or cells: SF9 insect cells. It is filed as biochemical. Background: A gel shift assay detects complexes by their altered migration in electrophoresis.

In a further data set the target is T2, HDAC11 (Homo sapiens, UniProt Q96DB2).
T2 construct: The full-length human HDACs were recombinantly expressed and purified from SF9 insect cells; host or cells: SF9 insect cells
T2 sequence (Q96DB2 1-347): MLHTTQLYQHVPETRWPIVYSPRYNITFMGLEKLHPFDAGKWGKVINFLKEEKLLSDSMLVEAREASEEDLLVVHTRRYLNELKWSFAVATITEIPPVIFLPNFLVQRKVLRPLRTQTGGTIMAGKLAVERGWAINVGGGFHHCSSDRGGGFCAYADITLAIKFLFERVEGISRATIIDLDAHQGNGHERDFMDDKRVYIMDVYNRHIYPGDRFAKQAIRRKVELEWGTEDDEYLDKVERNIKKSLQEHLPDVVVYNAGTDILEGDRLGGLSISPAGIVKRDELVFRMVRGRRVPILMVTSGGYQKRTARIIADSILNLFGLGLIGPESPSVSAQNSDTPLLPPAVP
Description: HDAC EMSA activity assay (Nanosyn). It is filed as biochemical. As to conditions: recombinant enzyme, read-out: In vitro IC50 HDAC11.

For a further data set, the target named is T3, HDAC3 (Homo sapiens, UniProt O15379).
T3 construct: The full-length human HDACs were recombinantly expressed and purified from SF9 insect cells; host or cells: SF9 insect cells
T3 sequence (O15379 whole entry): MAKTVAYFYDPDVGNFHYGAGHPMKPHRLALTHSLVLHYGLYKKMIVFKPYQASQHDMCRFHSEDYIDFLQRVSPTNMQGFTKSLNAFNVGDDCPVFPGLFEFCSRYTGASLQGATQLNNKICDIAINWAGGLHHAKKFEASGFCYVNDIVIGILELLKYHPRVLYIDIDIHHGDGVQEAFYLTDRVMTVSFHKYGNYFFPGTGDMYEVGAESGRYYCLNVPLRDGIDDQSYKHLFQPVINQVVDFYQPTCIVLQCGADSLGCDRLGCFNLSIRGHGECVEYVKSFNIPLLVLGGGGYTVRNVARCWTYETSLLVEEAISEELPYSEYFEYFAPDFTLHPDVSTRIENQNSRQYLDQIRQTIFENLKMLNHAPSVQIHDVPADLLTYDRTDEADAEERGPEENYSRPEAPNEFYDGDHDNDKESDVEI
T3 sequence (Q9Y618 395-489 partner limits assumed): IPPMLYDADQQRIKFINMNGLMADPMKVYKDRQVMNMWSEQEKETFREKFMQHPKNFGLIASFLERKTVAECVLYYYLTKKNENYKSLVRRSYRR
Description: HDAC EMSA activity assay (Nanosyn). The note with it: recombinant enzyme, read-out: In vitro IC50 HDAC3. It is filed as biochemical.

The test system of another data set is MRC-9. Description: Cytotoxicity assay (Cell Titer-Blue, 72 h). It is filed as cell-based. For orientation: The colour change of resazurin is a common sign of viable cells or microbes.
Another data set deals with T4, HDAC8 (Homo sapiens, UniProt Q9BY41).
T4 construct: The full-length human HDACs were recombinantly expressed and purified from SF9 insect cells; host or cells: SF9 insect cells
T4 sequence (Q9BY41 1-377): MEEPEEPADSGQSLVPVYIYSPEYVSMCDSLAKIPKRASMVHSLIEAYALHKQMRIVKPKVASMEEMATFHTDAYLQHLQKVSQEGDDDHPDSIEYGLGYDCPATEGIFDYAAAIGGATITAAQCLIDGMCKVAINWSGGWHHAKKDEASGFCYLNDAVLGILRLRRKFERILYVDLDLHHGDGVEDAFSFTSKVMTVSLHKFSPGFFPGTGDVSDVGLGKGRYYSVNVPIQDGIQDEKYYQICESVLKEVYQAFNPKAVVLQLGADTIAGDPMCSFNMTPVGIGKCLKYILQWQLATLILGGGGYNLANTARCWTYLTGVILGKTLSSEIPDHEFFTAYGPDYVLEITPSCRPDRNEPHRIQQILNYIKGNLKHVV
Description: HDAC EMSA activity assay (Nanosyn). It is filed as biochemical. As to conditions: for IC50: recombinant enzyme, EMSA (Nanosyn), read-out: In vitro IC50 HDAC8.

Data set [1] in a line: Glutathione stability / reactivity assay. It is filed as in vitro ADME. As to conditions: GSH adduct formation by LC/MS/MS; KT-531 up to 24 h. The procedure:
Although covalent modification of HDAC6 was not observed (Figure S2), the PFBS group is susceptible to nucleophilic aromatic substitution by biological nucleophiles. A previously described high-throughput in vitro glutathione-reactivity assay was conducted, where compounds were incubated in the presence of glutathione (GSH) and the formation of a GSH-compound adduct was monitored over time via LC/MS/MS.[50]
Compound was added to PBS and 5 mM GSH to reach a final concentration of 5 μM. […] Samples were vortexed and centrifuged for 45 min at 3220g. Aliquots were diluted by ultrapure water, and used for LC/MS/MS analysis. Peak area ratios were determined and percent compounds remaining was calculated by the following equation: [drawing 1] where peak area ratio (t min) is the peak area ratio of control and test compounds at t min; peak area ratio0min is the peak area ratio of control and test compounds at the zero time point. In vitro half-life (t1/2) = −(0.693/k).

The test system of a further data set is MV4-11. Description: Cytotoxicity assay (Cell Titer-Blue, 72 h). As to conditions: for IC50: Homo sapiens. It is filed as cell-based.
Where [2] appears, read: MRC9, MRC-9 (healthy fibroblasts), read-out: In cellulo IC50 MRC-9.
The mark [3] stands for this setting: recombinant enzyme, read-out: In vitro IC50 HDAC6.
The mark [4] stands for this setting: MV4-11 (AML), read-out: In cellulo IC50 MV4-11.

“And” between values parts separate entries of the source, which are not always exact repeats. Equal values may be shown once. Read-outs that look alike come from different tables or passages of the source.

Broadly, the IC50 is the concentration at which inhibition is half-maximal. Consider `O=C(NO)c1ccc(CNS(=O)(=O)c2c(F)c(F)c(F)c(F)c2F)cc1` [Compound 2, N-Hydroxy-4-(((perfluorophenyl)sulfonamido)methyl)benzamide], for which the IC50 at HDAC6 (read-out: IC50 HDAC6) is 0.389 µM; on HDAC11, above 1 µM; at HDAC3, above 1 µM; in the data set on MRC-9 (setting [2]), above 25 µM; on HDAC8 it was above 1 µM.

As for `CN(Cc1ccc(C(=O)NO)cc1)S(=O)(=O)c1c(F)c(F)c(F)c(F)c1F` [Compound 3, N-Hydroxy-4-(((2,3,4,5,6-pentafluoro-N-methylphenyl)sulfonamido)methyl)benzamide], the 50% inhibitory concentration (IC50) at HDAC6 (setting [3]) is 0.002 µM; at HDAC11, 0.246 µM; with MRC-9 (setting [2]), above 30 µM; at HDAC8, 0.184 µM. Besides, the “reactivity with glutathione” value in data set [1] is listed as “react readily with glutathione”.

For `CC(C)N(Cc1ccc(C(=O)NO)cc1)S(=O)(=O)c1c(F)c(F)c(F)c(F)c1F` [Compound 4, N-Hydroxy-4-(((2,3,4,5,6-pentafluoro-N-isopropylphenyl)sulfonamido)methyl)benzamide], the IC50 on HDAC6 (setting [3]) was 0.004 µM; on HDAC11 it was 0.941 µM; on HDAC3 it was 0.932 µM; in the data set with MRC-9 (setting [2]), above 10 µM; at HDAC8, 0.653 µM. Also, the “reactivity with glutathione” value in data set [1] is “react readily with glutathione”.

On to `O=C(NO)c1ccc(CN(C2CC2)S(=O)(=O)c2ccc(F)cc2)cc1` [Compound 7, 4-(((N-Cyclopropyl-4-fluorophenyl)sulfonamido)methyl)-N-hydroxybenzamide], for which the HDAC6 fold-selectivity at HDAC6 stood at 25.5 fold. In addition, the concentration for half-maximal inhibition (IC50) is 0.011 µM at HDAC6 (setting [3]); above 1 µM on HDAC11; 0.841 µM at HDAC3; 8.69 µM with MV4-11 (setting [4]); above 50 µM in the data set with MRC-9 (setting [2]); 0.281 µM at HDAC8.

On to `O=C(NO)c1ccc(CN(C2CC2)S(=O)(=O)c2cc(F)c(F)c(F)c2)cc1` [Compound 8, 4-(((N-Cyclopropyl-3,4,5-trifluorophenyl)sulfonamido)methyl)-N-hydroxybenzamide], for which the HDAC6 fold-selectivity on HDAC6 was 20 fold and 19.5 fold. The IC50 is 0.014 µM at HDAC6 (setting [3]); above 1 µM at HDAC11; above 1 µM at HDAC3; 5.98 µM in the data set with MV4-11 (setting [4]); above 25 µM with MRC-9 (setting [2]); 0.273 µM on HDAC8.

On to `O=C(NO)c1ccc(CN(C2CC2)S(=O)(=O)c2c(F)cc(F)cc2F)cc1` [Compound 9, 4-(((N-Cyclopropyl-2,4,6-trifluorophenyl)sulfonamido)methyl)-N-hydroxybenzamide], for which the HDAC6 fold-selectivity at HDAC6 came to 39.4 fold. Moreover, the IC50 is 0.008 µM at HDAC6 (setting [3]); above 1 µM on HDAC11; above 1 µM at HDAC3; 8.94 µM in the data set with MV4-11 (setting [4]); above 20 µM in the data set with MRC-9 (setting [2]); 0.315 µM at HDAC8.

In the case of `O=C(NO)c1cccc(CN(C2CC2)S(=O)(=O)c2c(F)c(F)c(F)c(F)c2F)c1` [Compound 10, 3-(((N-Cyclopropyl-2,3,4,5,6-pentafluorophenyl)sulfonamido)methyl)-N-hydroxybenzamide], the IC50 on HDAC6 (setting [3]) is 0.488 µM; at HDAC11, above 1 µM; on HDAC3, above 1 µM; with MV4-11 (setting [4]), 1.9 µM; in the data set on MRC-9 (setting [2]), above 50 µM; at HDAC8 it was 0.108 µM. In addition, at HDAC8, the “selectivity toward HDAC8” value was determined as 4 fold.

Consider `O=C(NO)c1ccc(CN(C2CC2)S(=O)(=O)c2c(F)c(Cl)c(F)c(Cl)c2F)cc1` [Compound 11, 4-(((3,5-Dichloro-N-cyclopropyl-2,4,6-trifluorophenyl)sulfonamido)methyl)-N-hydroxybenzamide], for which the HDAC6 fold-selectivity on HDAC6 was found to be 14.3 fold. Besides, the IC50 is 0.015 µM on HDAC6 (setting [3]); 0.364 µM on HDAC11; above 1 µM at HDAC3; 0.67 µM in the data set on MV4-11 (setting [4]); above 50 µM with MRC-9 (setting [2]); 0.214 µM at HDAC8.

Turning to `O=C(NO)c1ccc(CN(C2CC2)S(=O)(=O)c2c(F)cc(F)c(Cl)c2F)cc1` [Compound 12, 4-(((3-Chloro-N-cyclopropyl-2,4,6-trifluorophenyl)sulfonamido)methyl)-N-hydroxybenzamide], the HDAC6 fold-selectivity on HDAC6 stood at 22.3 fold. The IC50 is 0.009 µM at HDAC6 (setting [3]); above 1 µM at HDAC11; above 1 µM on HDAC3; 0.74 µM in the data set with MV4-11 (setting [4]); above 20 µM with MRC-9 (setting [2]); 0.201 µM at HDAC8.

`O=C(NO)c1ccc(CN(C2CC2)S(=O)(=O)c2c(F)c(F)c(Cl)c(F)c2F)cc1` [Compound 13, 4-(((4-Chloro-N-cyclopropyl-2,3,5,6-tetrafluorophenyl)sulfonamido)methyl)-N-hydroxybenzamide]: the half-maximal inhibitory concentration (IC50) was 0.07 µM at HDAC6 (read-out: IC50 HDAC6); above 1 µM at HDAC11; above 1 µM at HDAC3; 1.38 µM in the data set with MV4-11 (setting [4]); above 30 µM in the data set with MRC-9 (setting [2]); above 1 µM on HDAC8. Besides, the HDAC6 fold-selectivity on HDAC6 is 14.3 fold and ≥ 14.3* fold.

On to `CCCCN(Cc1ccc(C(=O)NO)cc1)C(=O)Nc1ccccc1` [Nexturastat, reference compound], for which the IC50 with MV4-11 (setting [4]) was 1.68 µM.

On to `COc1ccc(Cn2ccc3ccc(C(=O)NO)cc32)cc1` [PCI-34051, reference compound], for which the “activity in MV4-11 cells” value in the data set on MV4-11 was “no observable activity”. Moreover, the “activity in MRC9 cells” value in the data set with MRC-9 is given as “no observable activity”.

As for `O=C(CCCCCCNC(=O)c1cnc(N(c2ccccc2)c2ccccc2)nc1)NO` [Ricolinostat, reference compound], the IC50 is 0.81 µM with MV4-11 (MV4-11, read-out: In cellulo IC50 MV4-11) and above 20 µM in the data set with MRC-9 (MRC9, read-out: In cellulo IC50 MRC-9).
